The values that follow come from publication PMC5077133, “Towards Development of Small Molecule Lipid II Inhibitors as Novel Antibiotics” (PLoS ONE, 2016).

SMILES strings stand for the structures. A value given as a limit tells only on which side of the number the result lay.

The subject of one series is A. baumanii ATCC 19606. The experiment in a line: Antibacterial activity (MIC, broth dilution). The conditions noted are these: CLSI, in µg/mL. In kind it is cell-based, Acinetobacter baumanii. An excerpt: Staphylococcus aureus ATCC 29213, Escherichia coli ATCC 25922, Enterococcus faecalis ATCC 29212, Streptococcus pneumonia ATCC 49619 and Acinetobacter baumanii ATCC 19606 were obtained from Microbiologics (St. Cloud, MN). E. faecalis ATCC 51575, ATCC 51299 and REMEL C99707 and E. faecium ATCC 51559 (MDR), REMEL IH79985 and REMEL C110914 were generously provided by the Laboratory of Pathology, University of Maryland Baltimore School of Medicine. Unless stated otherwise, chemicals and reagents were purchased from Sigma.
(§1) Determination of the Minimal Inhibitory Concentrations (MIC) by dilution was carried out by broth dilution according to CLSI standards.

Another series has as its system E. faecium F118 (VRE). The experiment in a line: Antibacterial activity (MIC, broth dilution). It counts as cell-based. The conditions noted are these: CLSI, in µg/mL. As for the experimental part: as §1
In the next series the test system is S. aureus MRSA 1094. Put plainly: Antibacterial activity (MIC, broth dilution). It counts as cell-based. The note with it: CLSI. As for the experimental part: as §1
A further series relates to P. aeruginosa X13273. The experiment in a line: Antibacterial activity (MIC, broth dilution). It counts as cell-based. The conditions noted are these: CLSI, in µg/mL. On the procedure: as §1
For the next series, the system named is E. cloacae ATCC 13047. The experiment in a line: Antibacterial activity (MIC, broth dilution). It counts as cell-based. The conditions noted are these: CLSI. As for the experimental part:
as §1

For the next series, the system named is E. faecium EF1509 (VRE). The experiment in a line: Antibacterial activity (MIC, broth dilution). It counts as cell-based. The note with it: CLSI, in µg/mL. As for the experimental part: as §1
The next series deals with P. aeruginosa ATCC 27853. Put plainly: Antibacterial activity (MIC, broth dilution). It counts as cell-based. The conditions noted are these: CLSI. As for the experimental part:
as §1

For series [1], the system named is K. pneumoniae NR-15410 (KPC). The experiment in a line: Antibacterial activity (MIC, broth dilution). In kind it is cell-based. The conditions noted are these: CLSI. On the procedure: as §1
The test system of series [2] is K. pneumoniae NR-15411 (KPC). Put plainly: Antibacterial activity (MIC, broth dilution). It counts as cell-based. The conditions noted are these: CLSI. On the procedure:
as §1

The next series deals with E. aerogenes ATCC 13048. The experiment in a line: Antibacterial activity (MIC, broth dilution). In kind it is cell-based. The note with it: CLSI. As for the experimental part:
as §1

The next series concerns P. aeruginosa PA01. The experiment in a line: Antibacterial activity (MIC, broth dilution). It counts as cell-based. The conditions noted are these: CLSI. As for the experimental part: as §1
For series [3], the system named is S. aureus HFH-30123 (MRSA). The experiment in a line: Antibacterial activity (MIC, broth dilution). In kind it is cell-based. The note with it: CLSI. As for the experimental part:
as §1

Series [4] can be described thus: Lipid II binding by Surface Plasmon Resonance. The note with it: SPR, immobilized 3-Lipid II, 25°C. As for the experimental part:
Short-chain water-soluble Lipid II containing a lipid tail of three isoprene units was generated and purified essentially as described. Typically, M. flavus vesicles (120 μmol lipid-Pi) were incubated together with 500 μmol UDP-GlcNAc, 500 μmol UDP-MurNAC-pentapeptide and 400 μmol farnesyl phosphate in 100 mM Tris-HCl pH 8.0, 5 mM MgCl2. The incubation lasted two hours at room temperature for 3-P. The synthesis of 3-Lipid II was followed using RP-8 reversed phase TLC (Merck) developed in 75% methanol. For purification, the membranes were removed by centrifugation at 40,000 x g and the supernatant was collected and loaded on a C18 HPLC column and eluted with a linear gradient from 50 mM ammonium bicarbonate to 100% methanol in 30 minutes. Farnesyl-Lipid II (3-Lipid II) eluted at approximately 60% methanol. Its identity was confirmed by mass spectroscopy. Surface Plasmon Resonance binding experiments were carried out on a BIAcore T100 system (BIAcore Inc., Piscataway, NY) at 25°C. The assay buffer was 10 mM HEPES, 150 mM NaCl, 0.05% surfactant P20, pH 7.4 (± 3 mM EDTA) supplemented with 10% DMSO. 3-Lipid II (50 RUs) was immobilized on CM5 sensor chips using the amine-coupling chemistry recommended by the manufacturer. For initial determination of binding, compounds were introduced into the flow-cells (30 μl/min) in the running buffer at 10 μM. Resonance signals were corrected for nonspecific binding by subtracting the background of the control flow-cell. After each analysis, the sensor chip surfaces were regenerated with 50 mM NaOH for 30 s at a flow rate 100 μl/min, and equilibrated with the buffer prior to next injection. For binding kinetics studies, binding isotherms were analyzed with manufacturer-supplied software for BIAcore T100.

The test system of the next series is HeLa cells. Put plainly: Cytotoxicity against mammalian cells (MTS assay). In kind it is cell-based. On the procedure:
The cytotoxicity concentration of antibacterial compounds that produces half maximal decrease in viability (CC50) against mammalian cells (HeLa, ATCC CCL-2.2) was determined as described. The effect of compounds on HeLa cell viability was assessed in triplicate by measuring the mitochondrial activity using MTS assays according to the manufacturer’s instructions (Cell Titer 96 proliferation assay, Promega). The cells were incubated for 72 hours in RPMI1640 medium containing the compounds at final concentrations ranging from 64 to 0.125 μg/ml. CC50 was determined using a standard curve of serially diluted untreated cells in each experiment.

Take `Cc1cc(/C=C/c2ccc(N(C)C)cc2)cc(C)[o+]1.F[B-](F)(F)F` [6jc37]: the “Antibacterial activity (MIC) A. baumanii ATCC 19606” value in the series with A. baumanii ATCC 19606 is on record as “>=64”. Besides, the “Antibacterial activity (MIC) E. faecium F118 (VRE)” value with E. faecium F118 (VRE) is 64. The molecule further had an Antibacterial activity (MIC) S. aureus MRSA 1094 in the series on S. aureus MRSA 1094 of 16 µg/mL. In addition, the “Antibacterial activity (MIC) P. aeruginosa X13273” value in the series with P. aeruginosa X13273 is listed as “>=64”. Further, in the series with E. cloacae ATCC 13047, the Antibacterial activity (MIC) E. cloacae ATCC 13047 is not below 64 µg/mL. Moreover, the “Antibacterial activity (MIC) E. faecium EF1509 (VRE)” value with E. faecium EF1509 (VRE) came to 64. The molecule further yielded an Antibacterial activity (MIC) P. aeruginosa ATCC 27853 in the series on P. aeruginosa ATCC 27853 not below 64 µg/mL. The molecule also returned an Antibacterial activity (MIC) K. pneumoniae NR-15410 (KPC) in series [1] not below 64 µg/mL. For the same molecule, the Antibacterial activity (MIC) K. pneumoniae NR-15411 (KPC) in series [2] is not below 64 µg/mL. In the series with E. aerogenes ATCC 13048, this molecule returned an Antibacterial activity (MIC) E. aerogenes ATCC 13048 not below 64 µg/mL. This molecule showed an Antibacterial activity (MIC) P. aeruginosa PA01 in the series on P. aeruginosa PA01 not below 64 µg/mL. The molecule also had an Antibacterial activity (MIC) S. aureus HFH-30123 (MRSA) in [3] of 16 µg/mL. The “Lipid II binding Kd” value in [4] is listed as “No”. Also, in the series with HeLa cells, the “CC50% (72 h HeLa cells)” value was determined as 18.96.

For `Cc1cc(/C=C/C=C/c2ccc(N(C)C)cc2)cc(C)[o+]1.F[B-](F)(F)F` [6jc38], the “Antibacterial activity (MIC) A. baumanii ATCC 19606” value in the series with A. baumanii ATCC 19606 is given as “>=64”. For the same molecule, the “Antibacterial activity (MIC) E. faecium F118 (VRE)” value in the series on E. faecium F118 (VRE) is listed as “>=64”. In the series on S. aureus MRSA 1094, the Antibacterial activity (MIC) S. aureus MRSA 1094 was 64 µg/mL. The “Antibacterial activity (MIC) P. aeruginosa X13273” value with P. aeruginosa X13273 is given as “>=64”. Besides, the Antibacterial activity (MIC) E. cloacae ATCC 13047 with E. cloacae ATCC 13047 was not below 64 µg/mL. The “Antibacterial activity (MIC) E. faecium EF1509 (VRE)” value with E. faecium EF1509 (VRE) is reported as “>=64”. The molecule also displayed an Antibacterial activity (MIC) P. aeruginosa ATCC 27853 with P. aeruginosa ATCC 27853 not below 64 µg/mL. In [1], this molecule gave an Antibacterial activity (MIC) K. pneumoniae NR-15410 (KPC) not below 64 µg/mL. The Antibacterial activity (MIC) K. pneumoniae NR-15411 (KPC) in series [2] was not below 64 µg/mL. Further, the Antibacterial activity (MIC) E. aerogenes ATCC 13048 in the series on E. aerogenes ATCC 13048 is not below 64 µg/mL. Further, the Antibacterial activity (MIC) P. aeruginosa PA01 in the series with P. aeruginosa PA01 is not below 64 µg/mL. This molecule had an Antibacterial activity (MIC) S. aureus HFH-30123 (MRSA) in [3] not below 64 µg/mL. The “Lipid II binding Kd” value in [4] is on record as “No”. In addition, the “CC50% (72 h HeLa cells)” value in the series with HeLa cells is reported as more than 32.

For `CN(C)c1ccc(/C=C/c2cc(-c3ccccc3)cc(-c3ccccc3)[o+]2)cc1.F[B-](F)(F)F` [6jc39], the “Antibacterial activity (MIC) A. baumanii ATCC 19606” value with A. baumanii ATCC 19606 is listed as 16. Further, the “Antibacterial activity (MIC) E. faecium F118 (VRE)” value with E. faecium F118 (VRE) is reported as 4. In addition, the Antibacterial activity (MIC) S. aureus MRSA 1094 with S. aureus MRSA 1094 worked out at 2 µg/mL. For the same molecule, the “Antibacterial activity (MIC) P. aeruginosa X13273” value in the series with P. aeruginosa X13273 is “>=64”. The Antibacterial activity (MIC) E. cloacae ATCC 13047 with E. cloacae ATCC 13047 is not below 64 µg/mL. Besides, the “Antibacterial activity (MIC) E. faecium EF1509 (VRE)” value in the series with E. faecium EF1509 (VRE) came to 4. This molecule also registered an Antibacterial activity (MIC) P. aeruginosa ATCC 27853 in the series with P. aeruginosa ATCC 27853 not below 64 µg/mL. Also, the Antibacterial activity (MIC) K. pneumoniae NR-15410 (KPC) in [1] came out at 64 µg/mL. Further, in series [2], the Antibacterial activity (MIC) K. pneumoniae NR-15411 (KPC) was not below 64 µg/mL. In the series with E. aerogenes ATCC 13048, this molecule displayed an Antibacterial activity (MIC) E. aerogenes ATCC 13048 not below 64 µg/mL. In addition, the Antibacterial activity (MIC) P. aeruginosa PA01 in the series on P. aeruginosa PA01 is not below 64 µg/mL. The same molecule showed an Antibacterial activity (MIC) S. aureus HFH-30123 (MRSA) in [3] of 4 µg/mL. Binding in series [4] was put at a Kd of 39 ± 4 µM. In the series on HeLa cells, the “CC50% (72 h HeLa cells)” value was found to be 1.31.

With `CN(C)c1ccc(/C=C/c2cc(-c3ccc(Cl)cc3)cc(-c3ccc(Cl)cc3)[o+]2)cc1.F[B-](F)(F)F` [6jc41-1], the “Antibacterial activity (MIC) A. baumanii ATCC 19606” value with A. baumanii ATCC 19606 is listed as “>=64”. For the same molecule, in the series on E. faecium F118 (VRE), the “Antibacterial activity (MIC) E. faecium F118 (VRE)” value is 8. This molecule returned an Antibacterial activity (MIC) S. aureus MRSA 1094 in the series on S. aureus MRSA 1094 of 16 µg/mL. In addition, the “Antibacterial activity (MIC) P. aeruginosa X13273” value with P. aeruginosa X13273 was “>=64”. In the series with E. cloacae ATCC 13047, this molecule gave an Antibacterial activity (MIC) E. cloacae ATCC 13047 not below 64 µg/mL. Besides, in the series with E. faecium EF1509 (VRE), the “Antibacterial activity (MIC) E. faecium EF1509 (VRE)” value came out at 22.63. The same molecule came in with an Antibacterial activity (MIC) P. aeruginosa ATCC 27853 in the series with P. aeruginosa ATCC 27853 not below 64 µg/mL. Besides, in [1], the Antibacterial activity (MIC) K. pneumoniae NR-15410 (KPC) is not below 64 µg/mL. This molecule also returned an Antibacterial activity (MIC) K. pneumoniae NR-15411 (KPC) in [2] not below 64 µg/mL. The same molecule gave an Antibacterial activity (MIC) E. aerogenes ATCC 13048 in the series on E. aerogenes ATCC 13048 not below 64 µg/mL. In the series with P. aeruginosa PA01, this molecule had an Antibacterial activity (MIC) P. aeruginosa PA01 not below 64 µg/mL. For the same molecule, in series [3], the Antibacterial activity (MIC) S. aureus HFH-30123 (MRSA) stood at 32 µg/mL. The same molecule had a Kd in series [4] of 34 ± 4 µM. Further, in the series with HeLa cells, the “CC50% (72 h HeLa cells)” value was more than 32.
